In PubChem BioAssay AID330 (DTP/NCI, 2004):
Several values for one entry are separate records, joined by “and”; a condition that tells them apart may be missing. Identical values can stand only once. Counter-ions that a name gives are not always drawn. Toxic doses and inconclusive results are not listed. Rule for the calls: active = survival T/C of 150% or more; inactive = T/C below 125% in these data. Peptide text beside a SMILES is read from it. * marks the point of attachment. Tfa = O=C(C(F)(F)F)*

System: P388 leukemia ip, CD2F1 mice, survival T/C
Assay: NCI In Vivo Anticancer Drug Screen. Data for tumor model P388 Leukemia (intraperitoneal) in CD2F1 (CDF1) mice
Settings: endpoint: median survival time, higher = longer survival
Summary of the method: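 Mice carrying the transplanted tumor received test compound or vehicle. Survival was recorded in each group, and the value is the treated-group measurement divided by that of the vehicle-treated control group.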

[1] = dose: 50.0 mg/kg/injection, schedule: Q01DX009 (ip), vehicle: saline with Tween-80
[2] = dose: 100.0 mg/kg/injection, schedule: Q01DX001 (ip), vehicle: saline with Tween-80
[3] = dose: 200.0 mg/kg/injection, schedule: Q01DX001 (ip), vehicle: saline with Tween-80
[4] = dose: 400.0 mg/kg/injection, schedule: Q01DX001 (ip), vehicle: saline with Tween-80
[5] = dose: 50.0 mg/kg/injection, schedule: Q01DX005 (ip), vehicle: Klucel (hydroxypropylcellulose) (HPC)
[6] = dose: 60.0 mg/kg/injection, schedule: Q01DX005 (ip), vehicle: Klucel (hydroxypropylcellulose) (HPC)
[7] = dose: 50.0 mg/kg/injection, schedule: Q01DX009 (ip), vehicle: Klucel (hydroxypropylcellulose) (HPC)
[8] = dose: 100.0 mg/kg/injection, schedule: Q01DX009 (ip), vehicle: Klucel (hydroxypropylcellulose) (HPC)
[9] = dose: 200.0 mg/kg/injection, schedule: Q01DX009 (ip), vehicle: Klucel (hydroxypropylcellulose) (HPC)
[10] = dose: 120.0 mg/kg/injection, schedule: Q01DX005 (ip), vehicle: Klucel (hydroxypropylcellulose) (HPC)
[11] = dose: 50.0 mg/kg/injection, schedule: Q01DX005 (ip), vehicle: saline with Tween-80
[12] = dose: 100.0 mg/kg/injection, schedule: Q01DX005 (ip), vehicle: saline with Tween-80
[13] = dose: 60.0 mg/kg/injection, schedule: Q01DX005 (ip), vehicle: saline with Tween-80
[14] = dose: 120.0 mg/kg/injection, schedule: Q01DX005 (ip), vehicle: saline with Tween-80
[15] = dose: 240.0 mg/kg/injection, schedule: Q01DX005 (ip), vehicle: saline with Tween-80

Measured: T/C

COc1cc(CC2C(=O)OCC2Cc2ccc3c(c2)OCO3)cc(OC)c1OC (stereo not given)
inactive: dose: 12.5 mg/kg/injection, schedule: Q01DX009 (ip), vehicle: saline with Tween-80 98 % of control | dose: 25.0 mg/kg/injection, schedule: Q01DX009 (ip), vehicle: saline with Tween-80 104 % of control | [1] 100 % of control | dose: 50.0 mg/kg/injection, schedule: Q04DX002 (ip), vehicle: acetone 94 % of control | dose: 50.0 mg/kg/injection, schedule: Q04DX002 (ip), vehicle: saline with Tween-80 103 % of control | dose: 100.0 mg/kg/injection, schedule: Q04DX002 (ip), vehicle: acetone 100 % of control | dose: 100.0 mg/kg/injection, schedule: Q04DX002 (ip), vehicle: saline with Tween-80 100 % of control | dose: 200.0 mg/kg/injection, schedule: Q04DX002 (ip), vehicle: acetone 100 % of control | dose: 200.0 mg/kg/injection, schedule: Q04DX002 (ip), vehicle: saline with Tween-80 100 % of control

On1cccc2c(Br)cnc1-2
inactive: [2] 98 % of control | [3] 99 % of control | [4] 90 % of control

C=C1C(=O)O[C@@H]2C(=O)[C@@H](C)[C@@H]3C=CC(=O)[C@@]3(C)[C@@H](OC(=O)/C(C)=C\C)[C@H]12
inactive: dose: 2.0 mg/kg/injection, schedule: Q01DX009 (ip), vehicle: saline + alcohol 107 % of control | dose: 4.0 mg/kg/injection, schedule: Q01DX009 (ip), vehicle: saline + alcohol 99 % of control | dose: 8.0 mg/kg/injection, schedule: Q01DX009 (ip), vehicle: saline + alcohol 109 % of control and 123 % of control | dose: 16.0 mg/kg/injection, schedule: Q01DX009 (ip), vehicle: saline + alcohol 116 % of control

COc1ccc(/C=N/n2cnc3c(sc4ccccc43)c2=O)cc1
inactive: dose: 12.5 mg/kg/injection, schedule: Q01DX005 (ip), vehicle: Klucel (hydroxypropylcellulose) (HPC) 99 % of control | dose: 25.0 mg/kg/injection, schedule: Q01DX005 (ip), vehicle: Klucel (hydroxypropylcellulose) (HPC) 100 % of control | [5] 87 % of control and 92 % of control | dose: 200.0 mg/kg/injection, schedule: Q01DX005 (ip), vehicle: Klucel (hydroxypropylcellulose) (HPC) 92 % of control

CC[N+](C)(C)c1ccccc1
inactive: dose: 6.25 mg/kg/injection, schedule: Q04DX002 (ip), vehicle: saline 102 % of control | dose: 12.5 mg/kg/injection, schedule: Q04DX002 (ip), vehicle: saline 105 % of control | dose: 25.0 mg/kg/injection, schedule: Q04DX002 (ip), vehicle: saline 99 % of control and 102 % of control

CCOC(=O)c1ccc(NC(=O)Nc2cccc(NC(C)=O)c2)cc1
inactive: dose: 15.0 mg/kg/injection, schedule: Q01DX005 (ip), vehicle: Klucel (hydroxypropylcellulose) (HPC) 92 % of control | dose: 30.0 mg/kg/injection, schedule: Q01DX005 (ip), vehicle: Klucel (hydroxypropylcellulose) (HPC) 91 % of control | [6] 89 % of control

CSc1nc(-c2cccs2)cc(C(F)(F)F)n1
inactive: dose: 50.0 mg/kg/injection, schedule: Q04DX003 (ip), vehicle: gum acacia 105 % of control | dose: 100.0 mg/kg/injection, schedule: Q04DX003 (ip), vehicle: gum acacia 104 % of control | dose: 200.0 mg/kg/injection, schedule: Q04DX003 (ip), vehicle: gum acacia 109 % of control | dose: 400.0 mg/kg/injection, schedule: Q04DX003 (ip), vehicle: gum acacia 96 % of control

c1ccc(SC(Sc2ccccc2)=C2CCCCC2)cc1
inactive: [7] 100 % of control | [8] 106 % of control | [9] 90 % of control

COc1ccc2c(c1)CCC(c1nc3ccc(Cl)cc3[nH]c1=O)=C2O
inactive: [6] 101 % of control | [10] 92 % of control | dose: 240.0 mg/kg/injection, schedule: Q01DX005 (ip), vehicle: Klucel (hydroxypropylcellulose) (HPC) 91 % of control

CCOC(CNCc1cc(C)c2[nH]c3ccccc3c2c1C)OCC
inactive: [11] 100 % of control | [12] 102 % of control | dose: 200.0 mg/kg/injection, schedule: Q01DX005 (ip), vehicle: saline with Tween-80 110 % of control

COc1cc2c(c(C3(O)C(=O)N(C)c4ccccc43)c1OC)OCO2 (stereo not given)
inactive: [13] 101 % of control | [14] 98 % of control | [15] 98 % of control

c1cnn(P2(n3cccn3)=NP(n3cccn3)(n3cccn3)=NP(n3cccn3)(n3cccn3)=NP(n3cccn3)(n3cccn3)=NP(n3cccn3)(n3cccn3)=NP(n3cccn3)(n3cccn3)=N2)c1
inactive: [2] 100 % of control | [3] 100 % of control | [4] 98 % of control

CN(C)c1ccc(C(c2cc3c(cc2O)OCO3)N2CCOCC2)cc1 (stereo not given)
inactive: [13] 113 % of control | [14] 120 % of control | [15] 108 % of control

COC(=O)CC(NC(=O)C1CCCN1C(=O)C(F)(F)F)C(=O)OC (stereo not drawn) (Tfa-Pro-Asp(OMe)-OMe; configuration not given here)
inactive: [2] 104 % of control | [3] 101 % of control and 100 % of control | [4] 104 % of control

O=S(=O)(O)c1ccc(CCCCCCl)cc1
inactive: dose: 100.0 mg/kg/injection, schedule: Q04DX003 (ip), vehicle: saline 100 % of control | dose: 200.0 mg/kg/injection, schedule: Q04DX003 (ip), vehicle: saline 95 % of control | dose: 400.0 mg/kg/injection, schedule: Q04DX003 (ip), vehicle: saline 86 % of control

C/C(Cl)=C/CN(C/C=C(/C)Cl)CCO
inactive: [11] 101 % of control | [12] 102 % of control

O=C1OC(=O)C2CCCC1C2
inactive: [7] 108 % of control | [8] 102 % of control | [9] 102 % of control

Cc1cc2ccccc2c[n+]1[O-]
inactive: [5] 97 % of control | dose: 100.0 mg/kg/injection, schedule: Q01DX005 (ip), vehicle: Klucel (hydroxypropylcellulose) (HPC) 112 % of control

Cc1cc(Cl)c(C)c(Cl)c1Cl
inactive: dose: 100.0 mg/kg/injection, schedule: Q04DX003 (ip), vehicle: saline with Tween-80 95 % of control | dose: 200.0 mg/kg/injection, schedule: Q04DX003 (ip), vehicle: saline with Tween-80 95 % of control | dose: 400.0 mg/kg/injection, schedule: Q04DX003 (ip), vehicle: saline with Tween-80 91 % of control

Cc1csc2nc(-c3ccco3)nn12
inactive: [6] 107 % of control | [10] 107 % of control

CC(=O)[O][Sn]([CH2]c1ccccc1)([CH2]c1ccccc1)[CH2]c1ccccc1
inactive: dose: 0.75 mg/kg/injection, schedule: Q01DX009 (ip), vehicle: saline 115 % of control | dose: 1.5 mg/kg/injection, schedule: Q01DX009 (ip), vehicle: saline 87 % of control | dose: 3.0 mg/kg/injection, schedule: Q01DX009 (ip), vehicle: saline 105 % of control | dose: 6.0 mg/kg/injection, schedule: Q01DX009 (ip), vehicle: saline 108 % of control

OC(c1ccc(F)cc1)(C1CC1)C1CC1
inactive: dose: 100.0 mg/kg/injection, schedule: Q01DX001 (ip), vehicle: saline + alcohol 98 % of control | dose: 200.0 mg/kg/injection, schedule: Q01DX001 (ip), vehicle: saline + alcohol 99 % of control | dose: 400.0 mg/kg/injection, schedule: Q01DX001 (ip), vehicle: saline + alcohol 101 % of control

O=C1CSC(=O)N1c1cccc(C(F)(F)F)c1
inactive: [1] 104 % of control | dose: 100.0 mg/kg/injection, schedule: Q01DX009 (ip), vehicle: saline with Tween-80 97 % of control
